Reference: patent US12139486B2, “Octahydro fused azadecalin glucocorticoid receptor modulators” (Corcept Therapeutics, Inc., priority 2013, dated 2024)

What was measured:
human recombinant GR = target: T1, human recombinant GR (Homo sapiens, UniProt P04150); test: Human Glucocorticoid Receptor (GR) Fluorescence Polarisation (FP) Binding Assay; settings: Ki from IC50 by ligand depletion correction; displacement of Fluorome GS Red
T1 construct: purchased PanVera P2812
T1 sequence (P04150 1-777): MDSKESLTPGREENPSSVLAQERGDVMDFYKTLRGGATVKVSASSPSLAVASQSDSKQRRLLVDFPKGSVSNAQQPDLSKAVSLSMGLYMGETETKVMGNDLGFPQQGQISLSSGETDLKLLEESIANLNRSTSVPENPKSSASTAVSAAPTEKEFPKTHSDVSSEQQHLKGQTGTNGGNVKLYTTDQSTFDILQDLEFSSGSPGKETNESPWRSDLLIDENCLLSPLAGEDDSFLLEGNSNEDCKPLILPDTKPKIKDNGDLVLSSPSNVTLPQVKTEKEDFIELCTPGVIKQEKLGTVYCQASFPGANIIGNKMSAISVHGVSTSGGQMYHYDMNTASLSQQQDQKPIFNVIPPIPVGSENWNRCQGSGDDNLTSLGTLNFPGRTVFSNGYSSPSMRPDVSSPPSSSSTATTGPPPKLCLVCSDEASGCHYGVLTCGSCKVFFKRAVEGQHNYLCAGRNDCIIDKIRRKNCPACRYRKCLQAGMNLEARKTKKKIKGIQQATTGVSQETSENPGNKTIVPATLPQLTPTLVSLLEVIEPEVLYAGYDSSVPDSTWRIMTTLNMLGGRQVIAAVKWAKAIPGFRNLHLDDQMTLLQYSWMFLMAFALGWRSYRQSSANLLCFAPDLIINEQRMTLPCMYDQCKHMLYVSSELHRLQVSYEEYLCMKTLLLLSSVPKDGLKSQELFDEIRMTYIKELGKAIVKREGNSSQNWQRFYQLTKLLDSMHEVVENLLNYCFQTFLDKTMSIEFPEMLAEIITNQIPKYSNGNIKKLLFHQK

glucocorticoid receptor = target: T2, glucocorticoid receptor (Homo sapiens, UniProt P04150); test: HepG2 Tyrosine Aminotransferase (TAT) Assay; assay type: cell-based
T2 construct: endogenous in cells; host or cells: HepG2
T2 sequence (P04150 1-777): T1 sequence (P04150 1-777)

Ki (human recombinant GR) [nM]	Ki (glucocorticoid receptor) [nM]	SMILES
> 1	20 to 100	O=C(c1ccccn1)[C@]12Cc3cnn(-c4ccc(F)cc4)c3C[C@@H]1CCN(S(=O)(=O)c1ccc(Cl)c(Cl)c1)C2 [Example 1B, ((4aR,8aS)-6-((3,4-dichlorophenyl)sulfonyl)-1-(4-fluorophenyl)-4,4a,5,6,7,8,8a,9-octahydro-1H-pyrazolo[3,4-g]isoquinolin-4a-yl)(pyridin-2-yl)methanone]
< 0.5	20 to 100	CC(C)n1ncc(S(=O)(=O)N2CC[C@H]3Cc4c(cnn4-c4ccc(F)cc4)C[C@]3(C(=O)c3nccs3)C2)n1 [Example 2Z, ((4aR,8aS)-1-(4-fluorophenyl)-6-((2-isopropyl-2H-1,2,3-triazol-4-yl)sulfonyl)-4,4a,5,6,7,8,8a,9-octahydro-1H-pyrazolo[3,4-g]isoquinolin-4a-yl)(thiazol-2-yl)methanone]
